The values that follow are results of earlier work, collected in patent publication US20230190748A1, “COMPOSITIONS FOR TREATMENT OF AGED DISEASES” (GERO PTE. LTD., priority 2020, published 2023).

For data set [1] the following is noted: white to brownish yellow powder.
The target of data set [2] is EGFR/ErbB1 (Homo sapiens, UniProt P00533). The note with it: class symbols + to ++++ and √; legend not given.
Data set [3] concerns the target HER2/ErbB2 (Homo sapiens, UniProt P04626). Conditions: class symbols + to ++++ and √; legend not given.

Chain of EGFR/ErbB1 (P00533 25-1210): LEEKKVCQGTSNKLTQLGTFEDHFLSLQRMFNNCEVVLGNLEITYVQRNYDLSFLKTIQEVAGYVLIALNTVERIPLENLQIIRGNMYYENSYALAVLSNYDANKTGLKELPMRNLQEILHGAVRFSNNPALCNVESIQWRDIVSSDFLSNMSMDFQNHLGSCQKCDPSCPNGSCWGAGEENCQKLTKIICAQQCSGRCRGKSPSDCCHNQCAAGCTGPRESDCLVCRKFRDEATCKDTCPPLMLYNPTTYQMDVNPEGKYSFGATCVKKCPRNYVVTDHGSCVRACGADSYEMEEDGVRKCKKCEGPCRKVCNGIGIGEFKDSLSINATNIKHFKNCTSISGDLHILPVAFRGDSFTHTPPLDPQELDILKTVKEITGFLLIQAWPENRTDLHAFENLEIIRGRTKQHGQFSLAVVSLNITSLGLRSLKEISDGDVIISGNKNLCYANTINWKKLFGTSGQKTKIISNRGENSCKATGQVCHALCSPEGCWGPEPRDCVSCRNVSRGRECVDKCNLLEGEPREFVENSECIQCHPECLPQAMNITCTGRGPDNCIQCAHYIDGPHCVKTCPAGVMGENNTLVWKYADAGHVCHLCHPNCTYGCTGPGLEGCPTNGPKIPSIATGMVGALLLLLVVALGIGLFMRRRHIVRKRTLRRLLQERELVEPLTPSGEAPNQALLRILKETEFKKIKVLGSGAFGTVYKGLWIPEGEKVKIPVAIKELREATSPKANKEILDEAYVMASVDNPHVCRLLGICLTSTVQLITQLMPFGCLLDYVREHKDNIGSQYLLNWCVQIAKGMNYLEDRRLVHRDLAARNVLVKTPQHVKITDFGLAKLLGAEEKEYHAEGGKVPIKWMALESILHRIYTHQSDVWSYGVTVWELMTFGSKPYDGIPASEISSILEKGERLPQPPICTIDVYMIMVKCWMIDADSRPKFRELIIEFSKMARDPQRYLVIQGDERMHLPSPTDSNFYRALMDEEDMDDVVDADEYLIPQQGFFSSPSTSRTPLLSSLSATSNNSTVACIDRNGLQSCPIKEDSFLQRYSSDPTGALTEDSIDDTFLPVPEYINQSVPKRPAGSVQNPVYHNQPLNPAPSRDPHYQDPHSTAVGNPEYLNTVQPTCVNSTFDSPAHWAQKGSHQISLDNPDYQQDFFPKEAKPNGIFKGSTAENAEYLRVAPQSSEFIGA
Chain of HER2/ErbB2 (P04626 23-1255): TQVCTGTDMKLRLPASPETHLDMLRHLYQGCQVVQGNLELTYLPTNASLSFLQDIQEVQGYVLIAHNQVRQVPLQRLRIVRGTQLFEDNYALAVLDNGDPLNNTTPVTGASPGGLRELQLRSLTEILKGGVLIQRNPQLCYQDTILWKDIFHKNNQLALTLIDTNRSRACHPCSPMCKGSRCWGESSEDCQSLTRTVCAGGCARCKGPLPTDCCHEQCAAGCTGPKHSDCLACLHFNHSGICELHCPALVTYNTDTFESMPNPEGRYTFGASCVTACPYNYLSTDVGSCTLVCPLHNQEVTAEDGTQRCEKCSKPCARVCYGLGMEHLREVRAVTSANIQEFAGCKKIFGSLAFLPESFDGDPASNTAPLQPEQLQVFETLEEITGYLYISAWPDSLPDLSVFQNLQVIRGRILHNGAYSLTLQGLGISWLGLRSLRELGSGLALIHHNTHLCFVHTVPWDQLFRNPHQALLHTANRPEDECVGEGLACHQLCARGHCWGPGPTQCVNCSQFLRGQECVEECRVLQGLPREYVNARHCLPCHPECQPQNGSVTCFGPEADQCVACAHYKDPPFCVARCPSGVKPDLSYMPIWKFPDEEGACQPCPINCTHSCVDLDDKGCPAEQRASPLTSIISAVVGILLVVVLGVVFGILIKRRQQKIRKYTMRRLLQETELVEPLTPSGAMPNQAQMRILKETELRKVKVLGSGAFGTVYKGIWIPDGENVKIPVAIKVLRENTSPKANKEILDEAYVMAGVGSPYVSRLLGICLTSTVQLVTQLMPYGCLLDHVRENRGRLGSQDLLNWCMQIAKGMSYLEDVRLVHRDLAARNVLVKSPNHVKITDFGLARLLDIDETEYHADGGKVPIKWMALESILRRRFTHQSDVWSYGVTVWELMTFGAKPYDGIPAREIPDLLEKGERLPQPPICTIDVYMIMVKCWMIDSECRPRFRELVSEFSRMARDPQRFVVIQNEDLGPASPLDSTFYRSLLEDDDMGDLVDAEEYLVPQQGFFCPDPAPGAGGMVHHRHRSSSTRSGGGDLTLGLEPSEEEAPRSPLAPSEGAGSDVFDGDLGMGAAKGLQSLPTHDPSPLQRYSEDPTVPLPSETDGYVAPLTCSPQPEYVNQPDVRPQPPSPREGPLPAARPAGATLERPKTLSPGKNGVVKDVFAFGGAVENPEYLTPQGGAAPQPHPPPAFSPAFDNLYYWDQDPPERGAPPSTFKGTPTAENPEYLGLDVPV

On to `CN(C)C/C=C/C(=O)Nc1cc2c(Nc3ccc(F)c(Cl)c3)ncnc2cc1O[C@H]1CCOC1.O=C(O)/C=C\C(=O)O.O=C(O)/C=C\C(=O)O` [Afatinib (BIBW2992) Dimaleate, 2-butenamide, N-[4-[(3-chloro-4-fluorophenyl)amino] 7-[[(3S)-tetrahydro-3-furanyl]oxy]-6-quinazolinyl]-4-(dimethylamino)-,(2E)-, (2Z)-2-butenedioate (1:2)], for which, in data set [1], the solubility in water entry is given as “water soluble”.

Take `O=C(/C=C/c1ccc(O)c(O)c1)c1ccc(O)cc1O` [Butein]: in data set [2], the EGFR/ErbB1 result is “√”.

`Cc1cc(O)c2c(c1)C(=O)c1cccc(O)c1C2=O` [Chrysophanic Acid]: the EGFR/ErbB1 entry in data set [2] was “√”.

With `Cc1cc(Nc2ncnc3ccc(-c4ccc(CNCCS(C)(=O)=O)o4)cc23)ccc1Oc1ccn2ncnc2c1` [HER2-Inhibitor-1], the HER2/ErbB2 result in data set [3] is recorded as “√”.

For the molecule `C=CC(=O)N1CC[C@@H](Oc2nc(Nc3ccc(N4CCC(N5CCN(C)CC5)CC4)cc3)c(C(N)=O)nc2CC)C1` [Naquotinib(ASP8273), Naquotinib], the EGFR/ErbB1 result in data set [2] is given as “√”.

As for `C=CC(=O)Nc1cccc(Oc2nc(Nc3ccc(N4CCN(C)CC4)cc3)nc3ccsc23)c1` [Olmutinib (HM61713, BI 1482694), Olmutinib], in data set [2], the EGFR/ErbB1 entry is reported as “√”.

Turning to `C=CC(=O)Nc1cccc(Sc2nc(Nc3ccc(N4CCN(C)CC4)cc3)ncc2Cl)c1` [WZ8040], in data set [2], the EGFR/ErbB1 result is listed as “√”.
